As usually defined, the Ki is the equilibrium dissociation constant of an inhibitor or competing ligand from its target.

The nature of assay [1]: Inhibition of SERCA in sea urchin eggs assessed as Ca2+ leak rate at 10 uM relative to thapsigargin. Set-up: species or system Lytechinus pictus.
In assay [2] the test system is Lytechinus pictus. As to the kind of experiment: Inhibition of SERCA in sea urchin eggs assessed as Ca2+ leak rate at 10 uM.
The subject of assay [3] is Lytechinus pictus. The assay is described as follows: Inhibition of SERCA in sea urchin eggs assessed as Ca2+ leak rate. Further details: scale not given: the % may be the effect or the level left.

For `C/C=C(/C)C(=O)O[C@H]1C(C)=C2[C@H]([C@@H]1OC(=O)CCCCCCC)[C@@](C)(OC(C)=O)C[C@H](OC(=O)CCC)[C@@]1(O)[C@H]2OC(=O)[C@@]1(C)O` [THAPSIGARGIN], the Ki in assay [1] is 2 pM. Besides, the Activity in the assay on Lytechinus pictus [2] stood at 81 RFU/min.
As to `C=C[C@@]1(C)CC[C@H]2[C@](C)(COC(C)=O)[C@H]3C=C4C=C(OC)OC(=O)[C@@H]1[C@@]42OC3=O`, the Activity in the assay on Lytechinus pictus [3] came to 64.2%.
Still for that read-out and setting: the result for `C=C[C@@]1(C)CC[C@H]2[C@](C)(C(=O)OC)[C@H]3C=C4C=C(OC)OC(=O)[C@@H]1[C@@]42OC3=O` reads 61.4%.
Turning to `C=C[C@@]1(C)CC[C@H]2C(C)(C)[C@H]3C=C4C=C(OC)OC(=O)[C@@H]1[C@@]42OC3=O`, the Activity in the assay with Lytechinus pictus [3] was 65.4%.
For `C=C[C@]1(C)CC[C@H]2C(C)(C)[C@H]3C=C4C=C(OC)OC(=O)[C@@H]1[C@@]42OC3=O`, the Activity in the assay with Lytechinus pictus [3] was found to be 65.4%.
